These results are taken from ChEMBL document CHEMBL1135845, “N-(arylacetyl)-biphenylalanines as potent VLA-4 antagonists” (Bioorg Med Chem Lett, 2002).

Structures are written as SMILES.

Tested on in one experiment: not listed separately
The experiment is described as follows: Inhibition of VLA-4 binding to radiolabeled vascular cell adhesion molecule-1 (VCAM-1) Ig fusion protein in human Jurkat cells. In kind it is cell-based.
The term IC50 denotes the midpoint of a concentration-inhibition curve. Read a low IC50 as inhibition by little substance. The molecule `COc1ccccc1-c1ccc(C[C@H](NC(=O)C2(c3cnc4ccccc4c3)CCCC2)C(=O)O)cc1` gave an IC50 of 3.9 nM.

`COc1ccccc1-c1ccc(C[C@H](NC(=O)Cc2ccc([N+](=O)[O-])cc2)C(=O)O)cc1` registered an IC50 of 44.9 nM.

Molecule `COc1ccccc1-c1ccc(C[C@H](NC(=O)C2(c3cccnc3)CCNCC2)C(=O)O)cc1` gave an IC50 of 5.1 nM.

Turning to `COc1ccccc1-c1ccc(C[C@H](NC(=O)C2(c3ccc(=O)n(C)c3)CCCC2)C(=O)O)cc1`, the IC50 came to 2.1 nM.

The molecule `COc1ccccc1-c1ccc(C[C@H](NC(=O)Cn2cnnn2)C(=O)O)cc1` came in with an IC50 of 14.4 nM.

`COc1ccccc1-c1ccc(C[C@H](NC(=O)Cc2ccc3ccccc3c2)C(=O)O)cc1`: the IC50 is 801 nM.

In turn, `COc1ccccc1-c1ccc(C[C@H](NC(=O)Cc2ccccc2Cl)C(=O)O)cc1` yielded an IC50 of 36.8 nM.

Turning to `COc1ccccc1-c1ccc(C[C@H](NC(=O)Cc2ccccc2[N+](=O)[O-])C(=O)O)cc1`, the IC50 turned out to be 4.8 nM.

`COc1ccccc1-c1ccc(C[C@H](NC(=O)Cc2cccc(Cl)c2)C(=O)O)cc1` displayed a half-maximal inhibitory concentration (IC50) of 328 nM.

For `COc1ccccc1-c1ccc(C[C@H](NC(=O)C2(c3ccccc3)CC2)C(=O)O)cc1`, the IC50 is 90.7 nM.

`COc1cc(C2(C(=O)N[C@@H](Cc3ccc(-c4ccccc4OC)cc3)C(=O)O)CCCC2)ccn1` gave an IC50 of 0.8 nM.

`COc1ccccc1-c1ccc(C[C@H](NC(=O)C2(c3ccccc3)CCCCC2)C(=O)O)cc1` yielded a half-inhibitory concentration (IC50) of 6.5 nM.

The molecule `COc1ccccc1-c1ccc(C[C@H](NC(=O)Cn2cnc(Cl)c2Cl)C(=O)O)cc1` returned an IC50 of 6.15 nM.

`COc1ccccc1-c1ccc(C[C@H](NC(=O)Cc2c(Cl)cccc2Cl)C(=O)O)cc1` displayed an IC50 of 8 nM.

The molecule `COc1ccccc1-c1ccc(C[C@H](NC(=O)Cc2ccc(-c3ccccc3)cc2)C(=O)O)cc1` gave an IC50 of 607 nM.

As to `COc1ccccc1-c1ccc(C[C@H](NC(=O)Cc2ccccc2)C(=O)O)cc1`, the IC50 was determined as 264 nM.

As for `COc1ccccc1-c1ccc(C[C@H](NC(=O)C2(c3cncc4ccccc34)CCCC2)C(=O)O)cc1`, the IC50 was found to be 9.8 nM.

Regarding `COc1ccccc1-c1ccc(C[C@H](NC(=O)C2(c3cccnc3)CCN(C)CC2)C(=O)O)cc1`, the IC50 is 1 nM.

`COc1ccccc1-c1ccc(C[C@H](NC(=O)C2(c3cncc(Br)c3)CCCC2)C(=O)O)cc1` yielded an IC50 of 1.6 nM.

With `COc1ccccc1-c1ccc(C[C@H](NC(C)=O)C(=O)O)cc1`, the half-inhibitory concentration (IC50) turned out to be 262 nM.

In the case of `COc1ccccc1-c1ccc(C[C@H](NC(=O)Cc2ccc(Cl)cc2)C(=O)O)cc1`, the IC50 was 315 nM.

Take `COc1ccccc1-c1ccc(C[C@H](NC(=O)Cc2ccc(Cl)cc2Cl)C(=O)O)cc1`: the IC50 came out at 16.6 nM.

The target in another experiment is T1, Integrin alpha-4/beta-7 (Homo sapiens, UniProt P13612+P26010).
T1 sequence (P13612 whole entry): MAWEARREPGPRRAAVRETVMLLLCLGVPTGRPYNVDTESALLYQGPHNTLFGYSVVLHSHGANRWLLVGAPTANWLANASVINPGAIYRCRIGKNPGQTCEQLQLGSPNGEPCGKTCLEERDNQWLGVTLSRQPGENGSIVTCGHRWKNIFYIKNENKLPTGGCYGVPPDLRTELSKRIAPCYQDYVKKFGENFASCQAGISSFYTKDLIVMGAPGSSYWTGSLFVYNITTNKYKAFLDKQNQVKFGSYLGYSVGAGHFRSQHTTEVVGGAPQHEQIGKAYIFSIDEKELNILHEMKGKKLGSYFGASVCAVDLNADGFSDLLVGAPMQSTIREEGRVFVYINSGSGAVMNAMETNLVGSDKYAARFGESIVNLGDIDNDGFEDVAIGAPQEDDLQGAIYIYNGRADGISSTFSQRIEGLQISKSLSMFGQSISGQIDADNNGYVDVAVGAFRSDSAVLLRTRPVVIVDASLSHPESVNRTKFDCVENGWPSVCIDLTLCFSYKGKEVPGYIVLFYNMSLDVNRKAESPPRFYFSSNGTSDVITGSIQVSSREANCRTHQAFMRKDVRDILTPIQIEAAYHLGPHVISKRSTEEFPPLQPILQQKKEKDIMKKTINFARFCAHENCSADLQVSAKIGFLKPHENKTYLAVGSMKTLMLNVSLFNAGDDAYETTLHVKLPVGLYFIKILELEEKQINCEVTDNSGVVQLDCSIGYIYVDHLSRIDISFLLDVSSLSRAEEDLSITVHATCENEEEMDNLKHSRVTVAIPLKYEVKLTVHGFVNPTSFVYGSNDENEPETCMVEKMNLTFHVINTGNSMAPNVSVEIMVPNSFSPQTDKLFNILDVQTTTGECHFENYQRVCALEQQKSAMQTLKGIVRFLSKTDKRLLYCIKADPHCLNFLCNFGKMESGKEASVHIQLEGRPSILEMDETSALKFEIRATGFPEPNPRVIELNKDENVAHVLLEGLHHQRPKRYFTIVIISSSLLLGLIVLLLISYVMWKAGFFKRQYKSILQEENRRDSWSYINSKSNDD
T1 sequence (P26010 whole entry): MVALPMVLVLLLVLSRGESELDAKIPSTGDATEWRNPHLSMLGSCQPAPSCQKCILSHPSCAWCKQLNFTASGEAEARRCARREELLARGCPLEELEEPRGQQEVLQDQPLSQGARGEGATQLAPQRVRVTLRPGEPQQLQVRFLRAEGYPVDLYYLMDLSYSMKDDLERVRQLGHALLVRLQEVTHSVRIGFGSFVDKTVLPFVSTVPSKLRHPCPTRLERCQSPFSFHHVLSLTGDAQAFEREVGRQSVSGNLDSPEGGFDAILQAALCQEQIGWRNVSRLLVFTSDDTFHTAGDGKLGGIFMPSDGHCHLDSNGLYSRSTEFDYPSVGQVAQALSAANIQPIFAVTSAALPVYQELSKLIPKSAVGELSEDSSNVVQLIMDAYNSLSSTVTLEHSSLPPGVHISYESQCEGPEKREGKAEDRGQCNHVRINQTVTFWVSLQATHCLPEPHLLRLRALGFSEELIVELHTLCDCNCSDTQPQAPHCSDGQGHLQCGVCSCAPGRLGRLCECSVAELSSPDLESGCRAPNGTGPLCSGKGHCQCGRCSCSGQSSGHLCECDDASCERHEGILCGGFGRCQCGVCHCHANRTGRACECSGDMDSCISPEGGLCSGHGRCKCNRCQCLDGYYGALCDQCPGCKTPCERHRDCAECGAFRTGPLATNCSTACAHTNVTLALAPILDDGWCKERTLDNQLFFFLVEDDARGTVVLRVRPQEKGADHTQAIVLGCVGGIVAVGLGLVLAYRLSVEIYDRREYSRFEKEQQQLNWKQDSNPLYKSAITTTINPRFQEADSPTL
Nature of the experiment: Inhibition of alpha4-beta7 integrin binding to radiolabeled vascular cell adhesion molecule-1 (VCAM-1) Ig fusion protein in human Jurkat cells. In kind it is cell-based.
The molecule `COc1ccccc1-c1ccc(C[C@H](NC(=O)C2(c3cnc4ccccc4c3)CCCC2)C(=O)O)cc1` returned an IC50 of 98 nM.

As to `COc1ccccc1-c1ccc(C[C@H](NC(=O)C2(c3cccnc3)CCNCC2)C(=O)O)cc1`, the IC50 was 83 nM.

As to `COc1ccccc1-c1ccc(C[C@H](NC(=O)C2(c3ccc(=O)n(C)c3)CCCC2)C(=O)O)cc1`, the IC50 came out at 18 nM.

As to `COc1cc(C2(C(=O)N[C@@H](Cc3ccc(-c4ccccc4OC)cc3)C(=O)O)CCCC2)ccn1`, the IC50 was found to be 15 nM.

Consider `COc1ccccc1-c1ccc(C[C@H](NC(=O)C2(c3cncc4ccccc34)CCCC2)C(=O)O)cc1`, for which the half-inhibitory concentration (IC50) came out at 120 nM.

Molecule `COc1ccccc1-c1ccc(C[C@H](NC(=O)C2(c3cccnc3)CCN(C)CC2)C(=O)O)cc1` returned an IC50 of 51 nM.

In the case of `COc1ccccc1-c1ccc(C[C@H](NC(=O)C2(c3cncc(Br)c3)CCCC2)C(=O)O)cc1`, the IC50 worked out at 165 nM.
